Data on 23 compounds can be found in patent publication US10118916B2, “Modulators of cystic fibrosis transmembrane conductance regulator protein” (AbbVie S.à.r.l., priority 2016, dated 2018).

The target in this experiment is T1, F508delCFTR (Homo sapiens, UniProt P13569, DEL508-508).
T1 construct: expressed in transfected cells; host or cells: CFBE41o- (human lung derived epithelial cell line), doxycycline-inducible
The experiment in a line: Cell Surface Expression-Horse Radish Peroxidase (CSE-HRP) assay. Format: cell-based. Conditions: CFBE41o-F508delCFTR-HRP cells; for EC50: F508delCFTR cell surface expression, luminescence, 18-24 hours at 33° C., highest concentration 20 μM; for Maximum % activity: maximum at any tested concentration, normalized to on-plate positive control (3 μM). The method in brief:
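CFBE41o- cells expressing doxycycline-induced (0.5 μg/mL, 72 h at 37 °C) F508delCFTR with HRP in the fourth extracellular loop; compounds 8 points, 3-fold from 20 μM, 18-24 h at 33 °C. Surface HRP measured by luminol luminescence, normalised to DMSO and 3 μM reference corrector; EC50 from variable-slope sigmoidal fit of triplicate plates.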

Usually EC50 stands for the concentration that produces a half-maximal response. Low readings indicate greater potency, high ones weaker potency.

T1 sequence (P13569 with tags, fused parts or gaps DEL508-508): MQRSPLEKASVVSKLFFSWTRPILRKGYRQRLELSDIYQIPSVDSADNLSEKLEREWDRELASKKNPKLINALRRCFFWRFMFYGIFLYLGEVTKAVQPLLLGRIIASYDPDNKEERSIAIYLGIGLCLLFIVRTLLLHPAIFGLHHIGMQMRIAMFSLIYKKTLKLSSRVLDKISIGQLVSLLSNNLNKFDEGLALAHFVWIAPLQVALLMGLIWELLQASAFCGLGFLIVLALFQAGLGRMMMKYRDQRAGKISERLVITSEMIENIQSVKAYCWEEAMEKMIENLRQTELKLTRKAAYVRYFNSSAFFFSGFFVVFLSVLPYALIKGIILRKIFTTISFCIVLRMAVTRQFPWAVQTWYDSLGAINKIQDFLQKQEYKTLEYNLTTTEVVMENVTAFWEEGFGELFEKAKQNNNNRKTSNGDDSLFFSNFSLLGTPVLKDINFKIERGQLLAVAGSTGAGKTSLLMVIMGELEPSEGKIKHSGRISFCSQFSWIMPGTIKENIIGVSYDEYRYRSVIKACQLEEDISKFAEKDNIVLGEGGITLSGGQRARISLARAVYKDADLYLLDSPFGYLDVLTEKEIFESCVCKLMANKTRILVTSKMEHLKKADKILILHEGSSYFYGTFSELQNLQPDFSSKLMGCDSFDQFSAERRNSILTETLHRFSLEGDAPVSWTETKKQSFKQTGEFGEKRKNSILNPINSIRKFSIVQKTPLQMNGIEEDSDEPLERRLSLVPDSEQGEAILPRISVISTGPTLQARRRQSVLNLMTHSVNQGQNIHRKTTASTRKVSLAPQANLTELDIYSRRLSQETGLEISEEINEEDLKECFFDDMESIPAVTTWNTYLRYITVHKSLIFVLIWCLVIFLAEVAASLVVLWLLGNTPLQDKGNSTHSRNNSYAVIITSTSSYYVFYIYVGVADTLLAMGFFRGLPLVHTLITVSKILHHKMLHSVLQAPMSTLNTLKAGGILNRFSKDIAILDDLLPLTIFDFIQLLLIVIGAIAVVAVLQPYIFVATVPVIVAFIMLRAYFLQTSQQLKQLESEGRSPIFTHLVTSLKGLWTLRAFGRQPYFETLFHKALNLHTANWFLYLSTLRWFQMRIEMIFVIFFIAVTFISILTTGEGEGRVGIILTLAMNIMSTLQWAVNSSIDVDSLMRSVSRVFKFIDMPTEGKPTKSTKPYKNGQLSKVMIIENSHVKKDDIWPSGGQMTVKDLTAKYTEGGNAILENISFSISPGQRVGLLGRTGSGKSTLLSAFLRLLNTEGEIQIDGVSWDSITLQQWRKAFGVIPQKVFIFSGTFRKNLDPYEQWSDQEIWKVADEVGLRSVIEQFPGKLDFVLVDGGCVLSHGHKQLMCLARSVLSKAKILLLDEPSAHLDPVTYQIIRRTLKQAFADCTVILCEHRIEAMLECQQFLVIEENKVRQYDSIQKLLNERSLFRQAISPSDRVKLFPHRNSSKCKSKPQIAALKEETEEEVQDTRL

As to `COc1ccc2c(c1)OCC2(C)C(=O)N[C@@H]1C[C@H](c2cccc(C(=O)O)c2)Oc2ccccc21` (stereo partly drawn) [Example 56, 3-{(2R,4R)-4-[(6-methoxy-3-methyl-2,3-dihydro-1-benzofuran-3-carbonyl)amino]-3,4-dihydro-2H-1-benzopyran-2-yl}benzoic acid], the EC50 amounted to 1300 nM and the Maximum % activity stood at 71.4%.

On to `COC(=O)c1cccc([C@H]2C[C@@H](NC(=O)C3(C)CCc4ccc(OC(F)(F)F)cc43)c3ccc(OC)cc3O2)c1` (stereo partly drawn) [Example 57, methyl 3-[(2R,4R)-7-methoxy-4-{[1-methyl-6-(trifluoromethoxy)-2,3-dihydro-1H-indene-1-carbonyl]amino}-3,4-dihydro-2H-1-benzopyran-2-yl]benzoate], for which the EC50 is greater than 20000 nM and the Maximum % activity worked out at 2.3%.

Consider `COc1ccc2c(c1)O[C@@H](c1cccc(C(=O)O)c1)C[C@H]2NC(=O)C1(C)CCc2ccc(OC(F)(F)F)cc21` (stereo partly drawn) [Example 58, 3-[(2R,4R)-7-methoxy-4-{[1-methyl-6-(trifluoromethoxy)-2,3-dihydro-1H-indene-1-carbonyl]amino}-3,4-dihydro-2H-1-benzopyran-2-yl]benzoic acid], for which a half-maximal effect (EC50) was put at 2220 nM and the Maximum % activity was 20.4%.

Turning to `COC(=O)c1ccc([C@H]2C[C@@H](NC(=O)[C@@]3(C)CCc4cc(Cl)ccc4O3)c3ccccc3O2)cc1` [Example 59, methyl 4-[(2R,4R)-4-{[(2R)-6-chloro-2-methyl-3,4-dihydro-2H-1-benzopyran-2-carbonyl]amino}-3,4-dihydro-2H-1-benzopyran-2-yl]benzoate], the EC50 is greater than 20000 nM and the Maximum % activity turned out to be 1.8%.

Turning to `C[C@]1(C(=O)N[C@@H]2C[C@H](c3ccc(C(=O)O)cc3)Oc3ccccc32)CCc2cc(Cl)ccc2O1` [Example 60, 4-[(2R,4R)-4-{[(2R)-6-chloro-2-methyl-3,4-dihydro-2H-1-benzopyran-2-carbonyl]amino}-3,4-dihydro-2H-1-benzopyran-2-yl]benzoic acid], the EC50 is greater than 20000 nM and the Maximum % activity is reported as 2.3%.

On to `COC(=O)c1ccc([C@H]2C[C@@H](NC(=O)[C@]3(C)CCc4cc(Cl)ccc4O3)c3ccccc3O2)cc1` [Example 61, methyl 4-[(2R,4R)-4-{[(2S)-6-chloro-2-methyl-3,4-dihydro-2H-1-benzopyran-2-carbonyl]amino}-3,4-dihydro-2H-1-benzopyran-2-yl]benzoate], for which the EC50 turned out to be 5880 nM and the Maximum % activity stood at 20.0%.

With `C[C@@]1(C(=O)N[C@@H]2C[C@H](c3ccc(C(=O)O)cc3)Oc3ccccc32)CCc2cc(Cl)ccc2O1` [Example 62, 4-[(2R,4R)-4-{[(2S)-6-chloro-2-methyl-3,4-dihydro-2H-1-benzopyran-2-carbonyl]amino}-3,4-dihydro-2H-1-benzopyran-2-yl]benzoic acid], the EC50 worked out at 2650 nM and the Maximum % activity is reported as 22.6%.

As to `COC(=O)c1cccc([C@H]2C[C@@H](NC(=O)[C@]3(C)CCc4cc(Cl)ccc4O3)c3ccccc3O2)c1` [Example 63, methyl 3-[(2R,4R)-4-{[(2S)-6-chloro-2-methyl-3,4-dihydro-2H-1-benzopyran-2-carbonyl]amino}-3,4-dihydro-2H-1-benzopyran-2-yl]benzoate], the EC50 was greater than 20000 nM and the Maximum % activity is on record as 5.1%.

As to `C[C@@]1(C(=O)N[C@@H]2C[C@H](c3cccc(C(=O)O)c3)Oc3ccccc32)CCc2cc(Cl)ccc2O1` [Example 64, 3-[(2R,4R)-4-{[(2S)-6-chloro-2-methyl-3,4-dihydro-2H-1-benzopyran-2-carbonyl]amino}-3,4-dihydro-2H-1-benzopyran-2-yl]benzoic acid], the EC50 is greater than 20000 nM and the Maximum % activity turned out to be 18.0%.

Take `C[C@]1(C(=O)N[C@@H]2C[C@H](c3cccc(C(=O)O)c3)Oc3ccccc32)CCc2cc(Cl)ccc2O1` [Example 66, 3-[(2R,4R)-4-{[(2R)-6-chloro-2-methyl-3,4-dihydro-2H-1-benzopyran-2-carbonyl]amino}-3,4-dihydro-2H-1-benzopyran-2-yl]benzoic acid]: the EC50 was greater than 20000 nM and the Maximum % activity was determined as 4.8%.

As to `COc1ccc2c(c1)O[C@@H](c1ccc(C(=O)O)cc1)C[C@H]2NC(=O)[C@@]1(C)CCc2cc(Cl)ccc2O1` [Example 67, 4-[(2R,4R)-4-{[(2R)-6-chloro-2-methyl-3,4-dihydro-2H-1-benzopyran-2-carbonyl]amino}-7-methoxy-3,4-dihydro-2H-1-benzopyran-2-yl]benzoic acid], the EC50 was greater than 20000 nM and the Maximum % activity worked out at 4.7%.

With `COc1ccc2c(c1)O[C@@H](c1ccc(C(=O)O)cc1)C[C@H]2NC(=O)C1(C)CCc2cc(OC(F)(F)F)ccc21` (stereo partly drawn) [Example 68, 4-[(2R,4R)-7-methoxy-4-{[1-methyl-5-(trifluoromethoxy)-2,3-dihydro-1H-indene-1-carbonyl]amino}-3,4-dihydro-2H-1-benzopyran-2-yl]benzoic acid], the EC50 stood at 1310 nM and the Maximum % activity was 85.0%.

`COc1ccc2c(c1)CC[C@]2(C)C(=O)N[C@@H]1C[C@H](c2ccc(C(=O)O)cc2)Oc2cc(OC)ccc21` [Example 69, 4-[(2R,4R)-7-methoxy-4-{[(1S)-5-methoxy-1-methyl-2,3-dihydro-1H-indene-1-carbonyl]amino}-3,4-dihydro-2H-1-benzopyran-2-yl]benzoic acid]: the EC50 stood at 100 nM and the Maximum % activity amounted to 66.1%.

With `COc1ccc2c(c1)O[C@@H](c1ccc(C(=O)O)cc1)C[C@H]2NC(=O)C1(c2ccc(OC(F)(F)F)cc2)CCC1` [Example 70, 4-[(2R,4R)-7-methoxy-4-({1-[4-(trifluoromethoxy)phenyl]cyclobutane-1-carbonyl}amino)-3,4-dihydro-2H-1-benzopyran-2-yl]benzoic acid], a half-maximal response (EC50) required 2210 nM and the Maximum % activity is reported as 28.0%.

On to `COc1ccc2c(c1)O[C@@H](c1ccc(C(=O)O)cc1)C[C@H]2NC(=O)C(C)(C)c1ccc2c(c1)CCO2` [Example 71, 4-{(2R,4R)-4-[2-(2,3-dihydro-1-benzofuran-5-yl)-2-methylpropanamido]-7-methoxy-3,4-dihydro-2H-1-benzopyran-2-yl}benzoic acid], for which the EC50 worked out at 120 nM and the Maximum % activity amounted to 52.0%.

`COc1ccc2c(c1)O[C@@H](c1ccc(C(=O)O)cc1)C[C@H]2NC(=O)C1(c2ccccc2)CC(F)(F)C1` [Example 72, 4-{(2R,4R)-4-[(3,3-difluoro-1-phenylcyclobutane-1-carbonyl)amino]-7-methoxy-3,4-dihydro-2H-1-benzopyran-2-yl}benzoic acid]: the EC50 was greater than 20000 nM and the Maximum % activity came out at 1.4%.

Turning to `COc1ccc2c(c1)O[C@@H](c1ccc(C(=O)O)cc1)C[C@H]2NC(=O)C(C)(C)Oc1cccc(Cl)c1` [Example 73, 4-{(2R,4R)-4-[2-(3-chlorophenoxy)-2-methylpropanamido]-7-methoxy-3,4-dihydro-2H-1-benzopyran-2-yl}benzoic acid], the EC50 is 1840 nM and the Maximum % activity came out at 29.0%.

In the case of `COc1ccc(C2(C(=O)N[C@@H]3C[C@H](c4ccc(C(=O)O)cc4)Oc4cc(OC)ccc43)CC2)cc1` [Example 74, 4-[(2R,4R)-7-methoxy-4-{[1-(4-methoxyphenyl)cyclopropane-1-carbonyl]amino}-3,4-dihydro-2H-1-benzopyran-2-yl]benzoic acid], a half-maximal response (EC50) required 70 nM and the Maximum % activity is 49.8%.

Turning to `COc1ccc2c(c1)O[C@@H](c1ccc(C(=O)O)cc1)C[C@H]2NC(=O)C1(c2ccccc2)CC1` [Example 75, 4-{(2R,4R)-7-methoxy-4-[(1-phenylcyclopropane-1-carbonyl)amino]-3,4-dihydro-2H-1-benzopyran-2-yl}benzoic acid], a half-maximal effect (EC50) was put at 950 nM and the Maximum % activity came to 37.9%.

Turning to `COc1ccc2c(c1)O[C@@H](c1ccc(C(=O)O)cc1)C[C@H]2NC(=O)C1(c2ccc(Cl)cc2)CCC1` [Example 76, 4-[(2R,4R)-4-{[1-(4-chlorophenyl)cyclobutane-1-carbonyl]amino}-7-methoxy-3,4-dihydro-2H-1-benzopyran-2-yl]benzoic acid], the EC50 was 2100 nM and the Maximum % activity came to 52.0%.

For `COc1ccc2c(c1)O[C@@H](c1ccc(C(=O)O)cc1)C[C@H]2NC(=O)C(C)(C)Oc1ccc(Cl)c(C)c1` [Example 77, 4-{(2R,4R)-4-[2-(4-chloro-3-methylphenoxy)-2-methylpropanamido]-7-methoxy-3,4-dihydro-2H-1-benzopyran-2-yl}benzoic acid], the EC50 is greater than 20000 nM and the Maximum % activity is 8.0%.

In the case of `COc1ccc2c(c1)O[C@@H](c1ccc(C(=O)O)cc1)C[C@H]2NC(=O)C(C)(C)Oc1cccc(C(F)(F)F)c1` [Example 78, 4-[(2R,4R)-7-methoxy-4-{2-methyl-2-[3-(trifluoromethyl)phenoxy]propanamido}-3,4-dihydro-2H-1-benzopyran-2-yl]benzoic acid], the EC50 was 2470 nM and the Maximum % activity worked out at 32.0%.

In the case of `COc1ccc2c(c1)O[C@@H](c1ccc(C(=O)O)cc1)C[C@H]2NC(=O)C1(c2ccccc2)CCC(F)(F)C1` (stereo partly drawn) [Example 80, 4-{(2R,4R)-4-[(3,3-difluoro-1-phenylcyclopentane-1-carbonyl)amino]-7-methoxy-3,4-dihydro-2H-1-benzopyran-2-yl}benzoic acid], the EC50 was greater than 20000 nM and the Maximum % activity was −0.2%.
